Results published in patent US11504367B2, “Compounds and methods for treating oxalate-related diseases” (OxaluRx, Inc., priority 2019, dated 2022).

Biological target: recombinant full-length human hydroxyacid oxidase 1 (HAO1), the equivalents of hGOX (Homo sapiens (Human), UniProt Q9UJM8)
Experiment: In-vitro human glycolate oxidase (hGOX) assay (Amplex red fluorescence)
Type: biochemical
Details: 6 nM recombinant human GO, 85 μM glycolate, 10 min preincubation
Method: The in-vitro glycolate oxidase assay was performed using recombinant full-length human hydroxyacid oxidase 1 (HAO1), the equivalents of hGOX. […] Purified HAO1 was dissolved in assay buffer consisting of 10 mM NaCl, 110 mM KCl, 2 mM MgCl2, 50 mM HEPES (pH 7.4), and 0.01% Triton™ X-100.
The plates were incubated for 10 min at room temperature, at which point Amplex red reagent (50 μM) was added.
The fluorescence intensity signal was measured on a VariosKan LUX instrument using an excitation of 560 nm and an emission of 590 nm. The IC50 values were calculated using Graphpad Prism. The fluorescence signal of wells containing only DMSO was defined as 100% GO activity, while the fluorescence signal without the glycolate substrate was defined as 0% GO activity.

Chain of recombinant full-length human hydroxyacid oxidase 1 (HAO1), the equivalents of hGOX (Q9UJM8 whole entry): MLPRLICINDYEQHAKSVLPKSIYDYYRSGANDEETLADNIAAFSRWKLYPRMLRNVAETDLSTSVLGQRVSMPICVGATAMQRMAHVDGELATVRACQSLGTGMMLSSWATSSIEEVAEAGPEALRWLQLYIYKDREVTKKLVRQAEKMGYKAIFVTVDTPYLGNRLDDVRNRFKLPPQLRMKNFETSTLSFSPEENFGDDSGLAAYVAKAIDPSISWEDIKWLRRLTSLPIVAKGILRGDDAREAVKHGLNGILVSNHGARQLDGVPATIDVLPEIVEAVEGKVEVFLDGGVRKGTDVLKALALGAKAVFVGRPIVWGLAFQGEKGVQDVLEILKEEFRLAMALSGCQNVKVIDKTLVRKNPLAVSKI

IC50 [nM]	Structure (SMILES)
90	C#Cc1ccc(Oc2[nH]nnc2C(=O)O)cc1 [Example 2, 5-(4-Ethynylphenoxy)-1H-1,2,3-triazole-4-carboxylic Acid]
12	CC#Cc1ccc(Oc2[nH]nnc2C(=O)O)cc1 [Example 5, 5-(4-(Prop-1-ynyl)phenoxy)-1H-1,2,3-triazole-4-carboxylic Acid]
62	CC(C)C#Cc1ccc(Oc2[nH]nnc2C(=O)O)cc1 [Example 9, 5-(4-(3-Methylbut-1-ynyl)phenoxy)-1H-1,2,3-triazole-4-carboxylic Acid]
440	CC(C)(O)C#Cc1ccc(Oc2[nH]nnc2C(=O)O)cc1 [Example 13, 5-(4-(3-Hydroxy-3-methylbut-1-ynyl)phenoxy)-1H-1,2,3-triazole-4-carboxylic Acid]
9	O=C(O)c1nn[nH]c1Oc1ccc(C#CC2CCCCC2)cc1 [Example 36, 5-(4-(2-Cyclohexylethynyl)phenoxy)-1H-1,2,3-triazole-4-carboxylic Acid]
8	O=C(O)c1nn[nH]c1Oc1cccc(C#CC2CCCCC2)c1 [Example 37, 5-(3-(2-Cyclohexylethynyl)phenoxy)-1H-1,2,3-triazole-4-carboxylic Acid]
40	O=C(O)c1nn[nH]c1Oc1ccc(C#CC2CCOCC2)cc1 [Example 40, 5-(4-(2-(Tetrahydro-2H-pyran-4-yl)ethynyl)phenoxy)-1H-1,2,3-triazole-4-carboxylic Acid]
1	O=C(O)c1nn[nH]c1Oc1ccc(C#Cc2ccc3[nH]ncc3c2)cc1 [Example 108, 5-(4-(2-(1H-Indazol-5-yl)ethynyl)phenoxy)-1H-1,2,3-triazole-4-carboxylic Acid]
7	O=C(O)c1nn[nH]c1Oc1ccc(C#Cc2ccccc2)cc1 [Example 138, 5-(4-(2-Phenylethynyl)phenoxy)-1H-1,2,3-triazole-4-carboxylic Acid]
1	O=C(O)c1nn[nH]c1Oc1ccc(C#Cc2ccccc2)c(F)c1 [Example 146, 5-(3-Fluoro-4-(2-phenylethynyl)phenoxy)-1H-1,2,3-triazole-4-carboxylic Acid]
4	O=C(O)c1nn[nH]c1Oc1ccc(Cl)c(C#Cc2ccccc2)c1 [Example 147, 5-(4-Chloro-3-(2-phenylethynyl)phenoxy)-1H-1,2,3-triazole-4-carboxylic Acid]
14	CS(=O)(=O)c1ccc(Oc2[nH]nnc2C(=O)O)cc1C#Cc1ccccc1 [Example 149, 5-(4-(Methylsulfonyl)-3-(2-phenylethynyl)phenoxy)-1H-1,2,3-triazole-4-carboxylic Acid]
6	O=C(O)c1nn[nH]c1Oc1cccc(C#Cc2ncccn2)c1 [Example 165, 5-(3-(2-(Pyrimidin-2-yl)ethynyl)phenoxy)-1H-1,2,3-triazole-4-carboxylic Acid]
6	O=C(O)c1nn[nH]c1Oc1ccc(C#Cc2cn[nH]c2)cc1 [Example 178, 5-(4-(2-(1H-Pyrazol-4-yl)ethynyl)phenoxy)-1H-1,2,3-triazole-4-carboxylic Acid]
1	O=C(O)c1nn[nH]c1Oc1cccc(C#Cc2cccc(Cl)c2)c1 [Example 187, 5-(3-(2-(3-Chlorophenyl)ethynyl)phenoxy)-1H-1,2,3-triazole-4-carboxylic Acid]
6	CS(=O)(=O)c1cccc(C#Cc2cccc(Oc3[nH]nnc3C(=O)O)c2)c1 [Example 191, 5-(3-(2-(3-(Methylsulfonyl)phenyl)ethynyl)phenoxy)-1H-1,2,3-triazole-4-carboxylic Acid]
2	Cn1cc(C#Cc2ccc(Oc3[nH]nnc3C(=O)O)cc2)ccc1=O [Example 208, 4-(4-((1-Methyl-6-oxo-1,6-dihydropyridin-3-yl)ethynyl)phenoxy)-1H-1,2,3-triazole-5-carboxylic Acid]
8	Cn1cc(C#Cc2cccc(Oc3[nH]nnc3C(=O)O)c2)ccc1=O [Example 209, 4-(3-((1-Methyl-6-oxo-1,6-dihydropyridin-3-yl)ethynyl)phenoxy)-1H-1,2,3-triazole-5-carboxylic Acid]
48	CC(C)(O)C#Cc1cccc(Oc2[nH]nnc2C(=O)O)c1 [Example 215, 5-(3-(3-Hydroxy-3-methylbut-1-ynyl)phenoxy)-1H-1,2,3-triazole-4-carboxylic Acid]
4	Cn1cc(C#Cc2ccc(Oc3[nH]nnc3C(=O)O)cc2)cn1 [Example 220, 5-(4-(2-(1-Methyl-1H-pyrazol-4-yl)ethynyl)phenoxy)-1H-1,2,3-triazole-4-carboxylic Acid]
3	CS(=O)(=O)c1cccc(C#Cc2ccc(Oc3[nH]nnc3C(=O)O)cc2)c1 [Example 254, 5-(4-(2-(3-(Methylsulfonyl)phenyl)ethynyl)phenoxy)-1H-1,2,3-triazole-4-carboxylic Acid]

IC50 [nM]	Structure (SMILES)
2	Cn1ccc(C#Cc2ccc(Oc3[nH]nnc3C(=O)O)cc2)cc1=O [Example 256, 4-(4-((1-Methyl-2-oxo-1,2-dihydropyridin-4-yl)ethynyl)phenoxy)-1H-1,2,3-triazole-5-carboxylic Acid]
1	Cn1ccc(C#Cc2cccc(Oc3[nH]nnc3C(=O)O)c2)cc1=O [Example 257, 4-(3-((1-Methyl-2-oxo-1,2-dihydropyridin-4-yl)ethynyl)phenoxy)-1H-1,2,3-triazole-5-carboxylic Acid]
2	O=C(O)c1nn[nH]c1Oc1cc(F)cc(C#Cc2ccccc2)c1 [Example 258, 5-(3-Fluoro-5-(2-phenylethynyl)phenoxy)-1H-1,2,3-triazole-4-carboxylic Acid]
1	O=C(O)c1nn[nH]c1Oc1ccc(F)c(C#Cc2ccccc2)c1 [Example 259, 5-(4-Fluoro-3-(2-phenylethynyl)phenoxy)-1H-1,2,3-triazole-4-carboxylic Acid]
5	O=C(O)c1nn[nH]c1Oc1ccc(C#Cc2ccccc2)cc1F [Example 260, 5-(2-Fluoro-4-(2-phenylethynyl)phenoxy)-1H-1,2,3-triazole-4-carboxylic Acid]
4	O=C(O)c1nn[nH]c1Oc1cc(C#Cc2ccccc2)ccc1F [Example 261, 5-(2-Fluoro-5-(2-phenylethynyl)phenoxy)-1H-1,2,3-triazole-4-carboxylic Acid]
1	Cc1ccc(Oc2[nH]nnc2C(=O)O)cc1C#Cc1ccccc1 [Example 262, 5-(4-Methyl-3-(2-phenylethynyl)phenoxy)-1H-1,2,3-triazole-4-carboxylic Acid]
2	O=C(O)c1nn[nH]c1Oc1ccc(C(F)(F)F)c(C#Cc2ccccc2)c1 [Example 263, 5-(4-(Trifluoromethyl)-3-(2-phenylethynyl)phenoxy)-1H-1,2,3-triazole-4-carboxylic Acid]
20	COc1ccc(Oc2[nH]nnc2C(=O)O)cc1C#Cc1ccccc1 [Example 264, 5-(4-Methoxy-3-(2-phenylethynyl)phenoxy)-1H-1,2,3-triazole-4-carboxylic Acid]
3	O=C(O)c1ccc(C#Cc2cc(F)cc(Oc3[nH]nnc3C(=O)O)c2)cc1 [Example 265, 5-(3-Fluoro-5-(2-(4-carboxyphenyl)ethynyl)phenoxy)-1H-1,2,3-triazole-4-carboxylic Acid]
2	CS(=O)(=O)c1ccc(C#Cc2cc(Oc3[nH]nnc3C(=O)O)ccc2F)cc1 [Example 266, 5-(4-Fluoro-3-(2-(4-(methylsulfonyl)phenyl)ethynyl)phenoxy)-1H-1,2,3-triazole-4-carboxylic Acid]
2	CS(=O)(=O)c1cccc(C#Cc2cc(Oc3[nH]nnc3C(=O)O)ccc2F)c1 [Example 267, 5-(4-Fluoro-3-(2-(3-(methylsulfonyl)phenyl)ethynyl)phenoxy)-1H-1,2,3-triazole-4-carboxylic Acid]
1	N#Cc1ccc(C#Cc2ccc(Oc3[nH]nnc3C(=O)O)cc2F)cc1 [Example 269, 5-(4-((4-Cyanophenyl)ethynyl)-3-fluorophenoxy)-1H-1,2,3-triazole-4-carboxylic Acid]
1	N#Cc1cccc(C#Cc2ccc(Oc3[nH]nnc3C(=O)O)cc2F)c1 [Example 270, 5-(4-((3-Cyanophenyl)ethynyl)-3-fluorophenoxy)-1H-1,2,3-triazole-4-carboxylic Acid]
2	CS(=O)(=O)c1ccc(C#Cc2ccc(Oc3[nH]nnc3C(=O)O)cc2F)cc1 [Example 272, 5-(3-Fluoro-4-(2-(4-(methylsulfonyl)phenyl)ethynyl)phenoxy)-1H-1,2,3-triazole-4-carboxylic Acid]
2	CS(=O)(=O)c1cccc(C#Cc2ccc(Oc3[nH]nnc3C(=O)O)cc2F)c1 [Example 273, 5-(3-Fluoro-4-(2-(3-(methylsulfonyl)phenyl)ethynyl)phenoxy)-1H-1,2,3-triazole-4-carboxylic Acid]
5	CS(=O)(=O)c1ccc(C#Cc2cc(F)cc(Oc3[nH]nnc3C(=O)O)c2)cc1 [Example 274, 5-(3-Fluoro-5-(2-(4-(methylsulfonyl)phenyl)ethynyl)phenoxy)-1H-1,2,3-triazole-4-carboxylic Acid]
3	CS(=O)(=O)c1cccc(C#Cc2cc(F)cc(Oc3[nH]nnc3C(=O)O)c2)c1 [Example 275, 5-(3-Fluoro-5-(2-(3-(methylsulfonyl)phenyl)ethynyl)phenoxy)-1H-1,2,3-triazole-4-carboxylic Acid]
3	N#Cc1ccc(C#Cc2cc(F)cc(Oc3[nH]nnc3C(=O)O)c2)cc1 [Example 276, 4-(3-((4-Cyanophenyl)ethynyl)-5-fluorophenoxy)-1H-1,2,3-triazole-5-carboxylic Acid]
2	N#Cc1cccc(C#Cc2cc(F)cc(Oc3[nH]nnc3C(=O)O)c2)c1 [Example 277, 4-(3-((3-Cyanophenyl)ethynyl)-5-fluorophenoxy)-1H-1,2,3-triazole-5-carboxylic Acid]
